The text below walks through data of patent US20230078120A1 (priority 2020, published 2023).

Values joined by “and” are separate entries in the source; they are usually repeats but may differ in a detail not shown here. Equal values may be shown once. Read-outs that look alike come from different tables or passages of the source.

One series relates to SARS-CoV-2. As to the kind of experiment: microbe, parasite or virus in culture. It counts as cell-based. Particulars: for IC50: Severe acute respiratory syndrome coronavirus 2, Vero; for Max Inhibition (%): Vero cells, MOI 0.0125, 24 hpi, at the Max Conc. of each compound (5, 50 or 150 uM).
Another series is described as follows: in vitro. The settings on record: African green monkey.
In a further series the test system is IL-8, IP-10, MCP-1. Particulars: cytokines associated with influenza-induced cytokine storm; cited from earlier work.
The test system of series [1] is BCR-ABL1 expressing Ba/F3. The settings on record: read-out: IC50 Cellular Activity (BCR-ABL1 expressing Ba/F3).
Another series relates to virus-infected cells. Particulars: cited from earlier work.
The next series concerns the target ABL2 (Homo sapiens, UniProt P42684). Description: Compound 1 kinase inhibition activity (% Ctrl), ABL2. Type of series: biochemical.
The target of another series is BCR-ABL1 kinase (Homo sapiens, UniProt P00519). As to the kind of experiment: biochemical.
Chain of BCR-ABL1 kinase (P00519 27-1130): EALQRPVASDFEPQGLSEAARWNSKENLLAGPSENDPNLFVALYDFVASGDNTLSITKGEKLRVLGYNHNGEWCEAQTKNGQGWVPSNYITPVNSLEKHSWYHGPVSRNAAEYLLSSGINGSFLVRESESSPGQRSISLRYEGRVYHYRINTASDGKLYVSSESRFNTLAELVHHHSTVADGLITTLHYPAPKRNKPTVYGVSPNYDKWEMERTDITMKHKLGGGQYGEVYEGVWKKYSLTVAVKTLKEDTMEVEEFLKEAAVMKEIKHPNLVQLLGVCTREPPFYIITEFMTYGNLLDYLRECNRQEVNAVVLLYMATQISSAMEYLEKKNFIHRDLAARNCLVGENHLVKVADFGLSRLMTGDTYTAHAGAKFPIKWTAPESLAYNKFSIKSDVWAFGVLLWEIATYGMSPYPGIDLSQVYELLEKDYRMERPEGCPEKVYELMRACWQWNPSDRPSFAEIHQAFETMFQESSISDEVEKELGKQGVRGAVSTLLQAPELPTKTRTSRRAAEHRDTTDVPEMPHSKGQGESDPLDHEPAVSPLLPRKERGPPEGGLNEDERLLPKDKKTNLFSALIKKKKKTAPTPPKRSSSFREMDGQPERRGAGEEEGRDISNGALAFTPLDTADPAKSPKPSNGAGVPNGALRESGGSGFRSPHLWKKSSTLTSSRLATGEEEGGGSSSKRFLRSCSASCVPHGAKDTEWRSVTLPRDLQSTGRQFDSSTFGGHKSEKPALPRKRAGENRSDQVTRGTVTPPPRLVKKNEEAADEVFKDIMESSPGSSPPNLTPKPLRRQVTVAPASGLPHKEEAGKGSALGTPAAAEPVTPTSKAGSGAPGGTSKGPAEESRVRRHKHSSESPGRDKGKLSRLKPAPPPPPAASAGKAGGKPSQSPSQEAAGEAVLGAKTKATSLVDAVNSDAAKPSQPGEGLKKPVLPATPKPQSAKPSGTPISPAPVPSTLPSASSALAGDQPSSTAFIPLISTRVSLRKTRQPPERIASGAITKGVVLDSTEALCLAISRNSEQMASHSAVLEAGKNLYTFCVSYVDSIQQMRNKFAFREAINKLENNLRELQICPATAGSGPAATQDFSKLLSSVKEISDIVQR
The next series has as its target T1, RIPK1 (Homo sapiens, UniProt Q13546).
T1 sequence (Q13546 1-327 limits assumed): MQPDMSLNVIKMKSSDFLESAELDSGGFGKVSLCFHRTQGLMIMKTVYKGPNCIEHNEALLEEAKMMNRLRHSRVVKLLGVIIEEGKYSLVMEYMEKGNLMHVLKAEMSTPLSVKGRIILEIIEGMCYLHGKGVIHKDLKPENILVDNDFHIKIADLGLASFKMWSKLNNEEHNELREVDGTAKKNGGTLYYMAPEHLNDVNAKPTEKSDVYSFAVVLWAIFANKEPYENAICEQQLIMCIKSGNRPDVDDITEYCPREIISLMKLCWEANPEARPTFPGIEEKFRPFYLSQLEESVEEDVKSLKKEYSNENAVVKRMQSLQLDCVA
Description: RIPK1 kinase assay (Promega RIPK1 Kinase Enzyme System kit). It counts as biochemical. The settings on record: cell free assay.

The target in another series is ABL1-phosphorylated (Homo sapiens, UniProt P00519). As to the kind of experiment: Compound 1 kinase inhibition activity (% Ctrl), ABL1-phosphorylated. It counts as biochemical.
Chain of ABL1-phosphorylated (P00519 whole entry): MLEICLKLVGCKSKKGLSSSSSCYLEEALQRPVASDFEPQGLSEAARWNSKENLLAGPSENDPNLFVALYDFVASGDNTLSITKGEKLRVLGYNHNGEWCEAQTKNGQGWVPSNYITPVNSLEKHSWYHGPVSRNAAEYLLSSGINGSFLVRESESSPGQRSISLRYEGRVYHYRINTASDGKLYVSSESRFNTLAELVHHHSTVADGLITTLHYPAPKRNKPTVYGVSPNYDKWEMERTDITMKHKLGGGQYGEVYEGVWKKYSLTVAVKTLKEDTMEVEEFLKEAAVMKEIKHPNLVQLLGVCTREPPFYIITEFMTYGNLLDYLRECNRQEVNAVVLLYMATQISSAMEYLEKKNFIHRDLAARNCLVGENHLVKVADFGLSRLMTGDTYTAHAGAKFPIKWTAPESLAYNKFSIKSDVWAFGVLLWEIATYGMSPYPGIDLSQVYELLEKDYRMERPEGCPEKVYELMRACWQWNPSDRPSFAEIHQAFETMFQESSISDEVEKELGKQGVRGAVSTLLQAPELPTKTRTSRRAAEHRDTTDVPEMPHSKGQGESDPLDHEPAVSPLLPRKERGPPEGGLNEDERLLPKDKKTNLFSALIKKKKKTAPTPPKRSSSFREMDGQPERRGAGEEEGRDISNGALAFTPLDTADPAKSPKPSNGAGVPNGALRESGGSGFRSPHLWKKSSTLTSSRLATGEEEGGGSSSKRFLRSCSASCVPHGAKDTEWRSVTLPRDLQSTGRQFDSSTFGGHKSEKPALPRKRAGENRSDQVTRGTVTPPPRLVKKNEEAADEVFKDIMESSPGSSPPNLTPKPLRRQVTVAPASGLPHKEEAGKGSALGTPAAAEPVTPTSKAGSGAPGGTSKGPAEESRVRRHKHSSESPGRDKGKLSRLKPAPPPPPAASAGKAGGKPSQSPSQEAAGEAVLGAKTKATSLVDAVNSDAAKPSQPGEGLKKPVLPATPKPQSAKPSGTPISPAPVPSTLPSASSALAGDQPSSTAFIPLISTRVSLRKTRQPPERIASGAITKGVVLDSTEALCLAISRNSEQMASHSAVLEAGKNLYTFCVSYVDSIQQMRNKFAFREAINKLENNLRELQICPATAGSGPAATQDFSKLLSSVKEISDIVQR
In a further series the test system is influenza virus. Type of series: in vivo, mice.
A further series has as its target ABL1-nonphosphorylated (Homo sapiens, UniProt P00519). Description: Compound 1 kinase inhibition activity (% Ctrl), ABL1-nonphosphorylated. Type of series: biochemical.
For series [2], the system named is cytokines associated with influenza virus induced cytokine storm. As to the kind of experiment: Inhibition of cytokines associated with influenza virus induced cytokine storm, U937 cells, Luminex assay. It counts as cell-based. Particulars: U937 cells infected with influenza virus, MOI 0.1, 24 hours treatment. The protocol:
Following the method described in Front Immunol. 2019 Jun. 21; 1393 and Am. J. Physiol., Lung Cell Mol. Physiol. 315: L52-L58, 2018, U937 cells were infected with influenza virus at a MOI of 0.1 and treated with indicated concentrations of Compound 1 and Compound 2. The supernatant of cells was harvested after 24 hours treatment and the production of indicated cytokines were determined using Luminex assay. The method and results are shown below in FIG. 7 and FIGS. 8A-8C. Survival of influenza virus (IFV) infected mice are shown Table 4 and in FIGS. 9A-9B.

For the next series, the system named is Vero E6 cells. Particulars: cited from earlier work.
Series [3] has as its system HBV. Description: HBV replication in HepG2.2.15 liver cancer cell line. Type of series: cell-based. The source says: (§1) Similar to the above mentioned IAP inhibitors, Compound 2 of the present invention is a potent IAP inhibitor and can promote apoptosis, and thus could be a potential antiviral compound for coronavirus infection treatment. FIGS. 1A-1C show the effect of Compound 2 on apoptotic induction, IAPs expression, and HBV replication and gene expression in HepG2.2.15 liver cancer cell line.

In series [4] the test system is HBV. The settings on record: mouse model of chronic HBV infection; cited from earlier work.
For series [5], the system named is SARS-CoV. Particulars: Vero E6 and Calu-3 cells; cited from earlier work.
For series [6], the system named is MERS-CoV. The settings on record: Vero E6 cells; cited from earlier work.
The test system of series [7] is SARS-CoV. The settings on record: Vero E6 cells; cited from earlier work.
Series [8] has as its system MERS-CoV. Particulars: Vero E6 and MRC5 cells; cited from earlier work.
Series [9] deals with HBV. Description: HBV models in mice: hepatocyte apoptosis and liver immune readouts. It counts as in vivo.
The test system of a further series is IAPs. Description: IAPs expression in HepG2.2.15 liver cancer cell line. Type of series: cell-based.
Source text: as §1

Series [10] concerns HBV. As to the kind of experiment: Virus clearance in pAAV-HBV 1.3 model. Type of series: in vivo. Particulars: injection, C57BL/6J mice.
In series [11] the test system is HepG2.2.15 liver cancer cell line. Description: Apoptotic induction in HepG2.2.15 liver cancer cell line. Particulars: combination with TNF-α. It counts as cell-based.
Source text: as §1

The subject of series [12] is influenza A virus (IAV) infected cells. Particulars: caspase-mediate apoptosis pathway; cited from earlier work.

Chain of ABL1-nonphosphorylated (P00519 whole entry): as above
Chain of ABL2 (P42684 whole entry, species assumed): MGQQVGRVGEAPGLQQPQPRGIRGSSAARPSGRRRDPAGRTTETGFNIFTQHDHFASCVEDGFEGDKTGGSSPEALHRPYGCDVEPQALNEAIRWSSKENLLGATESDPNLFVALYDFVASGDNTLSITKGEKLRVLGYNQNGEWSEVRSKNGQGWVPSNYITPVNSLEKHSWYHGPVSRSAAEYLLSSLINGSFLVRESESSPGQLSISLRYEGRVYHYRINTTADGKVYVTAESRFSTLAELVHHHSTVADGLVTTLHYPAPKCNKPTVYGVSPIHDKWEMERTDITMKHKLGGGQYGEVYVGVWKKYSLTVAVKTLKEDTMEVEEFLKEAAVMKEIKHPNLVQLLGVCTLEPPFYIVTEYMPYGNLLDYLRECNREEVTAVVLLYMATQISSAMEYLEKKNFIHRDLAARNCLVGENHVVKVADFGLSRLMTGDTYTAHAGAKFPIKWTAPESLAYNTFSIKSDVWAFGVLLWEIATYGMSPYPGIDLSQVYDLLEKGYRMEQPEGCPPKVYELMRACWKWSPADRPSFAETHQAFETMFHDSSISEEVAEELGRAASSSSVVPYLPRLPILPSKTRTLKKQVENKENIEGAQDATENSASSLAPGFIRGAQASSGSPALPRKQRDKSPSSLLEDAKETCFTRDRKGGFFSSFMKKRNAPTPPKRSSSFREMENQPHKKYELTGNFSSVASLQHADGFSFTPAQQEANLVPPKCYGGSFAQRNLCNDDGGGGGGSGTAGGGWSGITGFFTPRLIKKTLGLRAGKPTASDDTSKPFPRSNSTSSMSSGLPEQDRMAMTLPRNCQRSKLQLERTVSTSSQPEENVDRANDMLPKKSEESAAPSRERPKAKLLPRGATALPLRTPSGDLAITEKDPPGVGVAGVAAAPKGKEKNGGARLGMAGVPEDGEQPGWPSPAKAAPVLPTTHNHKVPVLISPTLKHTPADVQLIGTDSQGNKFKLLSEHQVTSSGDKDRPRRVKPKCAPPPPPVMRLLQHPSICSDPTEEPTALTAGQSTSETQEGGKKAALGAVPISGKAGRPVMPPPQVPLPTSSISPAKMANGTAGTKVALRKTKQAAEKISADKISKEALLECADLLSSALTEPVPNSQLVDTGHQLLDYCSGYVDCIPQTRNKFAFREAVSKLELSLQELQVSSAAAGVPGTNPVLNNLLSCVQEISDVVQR

In the case of `Cc1cccc(C)c1OCC(=O)N[C@@H](Cc1ccccc1)[C@@H](O)C[C@H](Cc1ccccc1)NC(=O)[C@H](C(C)C)N1CCCNC1=O` [Lopinavir], in the series with SARS-CoV-2, the IC50 worked out at 17.3 µM and the “Max Inhibition (%)” value was 99.93%. The CC50 in the series “in vitro” was over 50 µM.

Turning to `Cc1cn(-c2cc(NC(=O)c3ccc(C)c(Nc4nccc(-c5cccnc5)n4)c3)cc(C(F)(F)F)c2)cn1` [Nilotinib, reference compound], in the series on IL-8, IP-10, MCP-1, the “production of IL-8, IP-10 and MCP-1” value is “inhibit the production”. In addition, the IC50 in series [1] worked out at 0.01 ± 0.003 µM.

As to `CCC(CC)COC(=O)[C@H](C)N[P@](=O)(OC[C@H]1O[C@@](C#N)(c2ccc3c(N)ncnn23)[C@H](O)[C@@H]1O)Oc1ccccc1` [Remdesivir], in the series on SARS-CoV-2, the IC50 was found to be 12.4 µM and the “Max Inhibition (%)” value amounted to 95.01%. The compound further returned a CC50 in “in vitro” of over 50 µM.

In the case of `CN(C)CC[C@H](CSc1ccccc1)Nc1ccc(S(=O)(=O)NC(=O)c2ccc(N3CCN(Cc4ccccc4-c4ccc(Cl)cc4)CC3)cc2)cc1[N+](=O)[O-]` [ABT-737], in the series with virus-infected cells, the “apoptosis in virus-infected cells” value was “accelerate apoptosis in virus-infected cells”.

Regarding `Cc1ccc(C(=O)Nc2ccc(CN3CCN(C)CC3)c(C(F)(F)F)c2)cc1C#Cc1cnc2[nH]ncc2c1` [Compound 1, 3-(2-(1H-pyrazolo[3,4-b]pyridin-5-yl)ethynyl)-4-methyl-N-(4-((4-methylpiperazin-1-yl)methyl)-3-(trifluoromethyl)phenyl)-benzamide], the remaining activity at 0.01 µM at ABL2 (10 nM) amounted to 2.6%; at ABL1-phosphorylated (read-out: % Ctrl @ 10 nM), 3%; at ABL1-nonphosphorylated (read-out: % Ctrl @ 10 nM) it was 4.4%. The remaining activity at 0.1 µM at ABL2 (100 nM) is 0%; at ABL1-phosphorylated (read-out: % Ctrl @ 100 nM), 0%; at ABL1-nonphosphorylated (read-out: % Ctrl @ 100 nM) it was 0.1%. In addition, the remaining activity at 1 µM on ABL2 (1000 nM), at ABL1-phosphorylated (read-out: % Ctrl @ 1000 nM) and on ABL1-nonphosphorylated (read-out: % Ctrl @ 1000 nM) was 0% in each case. Also, the IC50 with SARS-CoV-2 turned out to be 1.32 µM; against BCR-ABL1 kinase it was 0.0003 ± 4.5e-06 µM; on RIPK1, 0.054 µM; in [1], 0.006 ± 0.003 µM. The “SARS-CoV-2 infection in Vero cell” value with SARS-CoV-2 (result in words) is recorded as “inhibits SARS-CoV-2 infection in Vero cell”. Moreover, the “survival of influenza virus infected mice” value in the series on influenza virus (at the amounts of 5 mg/kg or 10 mg/kg) is “improves the survival of influenza virus infected mice”. Besides, the “Day 21 Survival number” value with influenza virus (mouse, in vivo) is 1 and 2. Also, the “Survival rate (%)” value with influenza virus (mouse, in vivo) was 11.11% and 22.22%. The “production of cytokines associated with influenza induced cytokine storm” value in [2] is reported as “inhibits the production of cytokines associated with influenza induced cytokine storm”. In the series “in vitro”, this compound showed a CC50 of over 5 µM.

For the compound `CC1(C)CCC(c2ccc(Cl)cc2)=C(CN2CCN(c3ccc(C(=O)NS(=O)(=O)c4ccc(N[C@H](CCN5CCOCC5)CSc5ccccc5)c(S(=O)(=O)C(F)(F)F)c4)cc3)CC2)C1` [ABT-236], in the series on virus-infected cells, the “apoptosis in virus-infected cells” value is reported as “accelerate apoptosis in virus-infected cells”.

Take `Cc1nc(Nc2ncc(C(=O)Nc3c(C)cccc3Cl)s2)cc(N2CCN(CCO)CC2)n1` [Dasatinib]: the cytotoxicity entry with Vero E6 cells is reported as “low cytotoxicity”.

For `CC[C@H](NC(=O)[C@H](C)NC)C(=O)N1C[C@@H](O)C[C@H]1Cc1c(-c2[nH]c3cc(F)ccc3c2C[C@@H]2C[C@H](O)CN2C(=O)[C@H](CC)NC(=O)[C@H](C)NC)[nH]c2cc(F)ccc12` [Birinapant], in the series on HBV [3] (high concentrations), the virus replication result is recorded as “impair enhancement of virus replication”. In addition, the virus replication result in the series on HBV [3] (low concentrations) is given as “increased virus replication”. Further, in the series on HBV [4], the “elimination of hepatocytes containing HBV core antigen” value is listed as “promote the elimination”, the “serum HBV DNA” value is recorded as “rapidly reduce” and the “serum HBV surface antigen” value is “rapidly reduce”.

For `Cc1ccc(NC(=O)c2ccc(CN3CCN(C)CC3)cc2)cc1Nc1nccc(-c2cccnc2)n1` [Imatinib], the “virus production of SARS-CoV” value in the series with SARS-CoV [5] was “showed inhibition”. The “inhibition of MERS-CoV” value in the series on MERS-CoV [6] is recorded as “inhibit”. Also, the “inhibition of SARS-CoV” value with SARS-CoV [7] is “inhibit”. Also, the cytotoxicity entry in the series on Vero E6 cells was “low cytotoxicity”. The “virus production of MERS-CoV” value with MERS-CoV [8] is listed as “showed inhibition”.

In the case of `CN[C@@H](C)C(=O)N[C@H]1CN(S(=O)(=O)c2cccc(S(=O)(=O)N3CC[C@H]4CC[C@@H](C(=O)NC(c5ccccc5)c5ccccc5)N4C(=O)[C@@H](NC(=O)[C@H](C)NC)C3)c2)CC[C@H]2CC[C@@H](C(=O)NC(c3ccccc3)c3ccccc3)N2C1=O` [Compound 2, (5S,5′S,8S,8′S,10aR,10a′R)-3,3′-(1,3-phenylenedisulfonyl)bis(N-benzhydryl-5-((S)-2-(methylamino)propanamido)-6-oxodecahydropyrrolo[1,2-a][1,5]diazocine-8-carboxamide)], the “apoptosis in the HBV-infected (HBsAg+) hepatocytes” value in the series on HBV [9] (HBV models in mice) was “specifically induced apoptosis”. In addition, in the series on HBV [9] (liver tissue of HBV models), the “expression of IFN-γ and TNF-α” value is “promotes the expression of IFN-γ and TNF-α”; the “number of CD4+ and CD8+ T cells” value is “promotes”. In addition, in the series with SARS-CoV-2, the IC50 is over 50 µM and the “Max Inhibition (%)” value is recorded as 25.93%. The “expression of IAPs” value with IAPs is “inhibits the expression of IAPs in a dose-dependent manner”. Besides, the virus replication entry in the series on HBV [3] (high concentrations) was “impair enhancement of virus replication”. Moreover, the virus replication result in the series with HBV [3] (low concentrations) was “increased virus replication”. For the same compound, the virus clearance result with HBV [10] is given as “promotes virus clearance”. Besides, the apoptosis pathway activation entry in [11] is “significantly activate apoptosis pathway”. In addition, the “production of cytokines associated with influenza induced cytokine storm” value in series [2] is reported as “inhibits the production of cytokines associated with influenza induced cytokine storm”. Also, in the series “in vitro”, the CC50 was over 50 µM.

In the case of `CCOC(=O)C1=C[C@@H](OC(CC)CC)[C@H](NC(C)=O)[C@@H](N)C1` [Oseltamivir], in the series with influenza virus (10 mpk, QD, 2 hr prior to infection, day 21), the “Survival rate (%)” value came out at 100%. Further, in the series on influenza virus (10 mpk, QD, 2 hr prior to infection, of 9 animals), the “Day 21 Survival number” value worked out at 9.

On to `CCN(CC)CCCC(C)Nc1ccnc2cc(Cl)ccc12` (stereo not drawn) [Chloroquine], for which, in the series on SARS-CoV-2, the IC50 was 13 µM and the “Max Inhibition (%)” value stood at 100.01%. Also, the CC50 in “in vitro” is over 150 µM.

On to `CC1(C)CCC(c2ccc(Cl)cc2)=C(CN2CCN(c3ccc(C(=O)NS(=O)(=O)c4ccc(N[C@H](CCN5CCOCC5)CSc5ccccc5)c(S(=O)(=O)C(F)(F)F)c4)cc3)CC2)C1` [ABT-263], for which the “apoptosis in virus-infected cells” value in series [12] is listed as “accelerates apoptosis in virus-infected cells”.

Regarding `Cc1ccc(C(=O)Nc2ccc(CN3CCN(C)CC3)c(C(F)(F)F)c2)cc1C#Cc1cnc2cccnn12` [Ponatinib], in the series on influenza virus (mouse, in vivo), the “Day 21 Survival number” value is 2 and 1; the “Survival rate (%)” value is 22.22% and 11.11%.
